US10532052B2, “Combination of a 6-oxo-1,6-dihydro-pyridazine derivative having anti-cancer activity with an EGFR inhibitor” (Merck Patent GmbH, priority 2014, dated 2020)

What was measured:
[1] = test system: human DFCI081 NSCLC xenograft; assay: human DFCI081 patient derived NSCLC xenograft (PDX) model; type: in vivo; conditions: for tumor response class / median tumor volume (TV) change: female NCr nude mice; for tumor response class: 100 mg/kg each agent orally daily up to 18 days; for median tumor volume (TV) change: s.c. DFCI081 tumors, 100 mg/kg orally daily up to 18 days
Method: Method: Female NCr nude mice (7 weeks old) where subcutaneously injected with human DFCI081 tumor cells and were divided into treatment groups (10 animals per group) after the tumors were established. […] Median tumor volume (TV) change in % were calculated and statistical analysis done with two way-RM ANOVA.

[2] = test system: human NSCLC HCC827-GR-T790M xenograft; type: in vivo; conditions: female NCr nude mice, 100 mg/kg each agent orally daily, day 14
Method: Background: The human NSCLC HCC827-GR-T790M is a EGFR del 19 mutant and c-Met amplified lung xenograft model which exogenous expression of the EGFR T790M resistant mutation.
Method: Female NCr nude mice (7 weeks old) where subcutaneously injected with human HCC827-GR-T790M tumor cells and were divided into treatment groups (10 animals per group) after the tumors were established. […] Median tumor volume (TV) change in % were calculated at day 14, where the vehicle group was terminated and statistical analysis done with two way-RM ANOVA.

[3] = test system: human DFCI081 NSCLC xenograft; conditions: background; due to the activated c-Met pathway; cited from earlier work

Row | Structure (SMILES) | day at which complete tumor regression/response was observed in all mice ([1]; 100 mg/kg each agent orally daily) [days] | tumor response class [1] | median tumor volume (TV) change [1] [%] | tumor response class [2] | median tumor volume change ([2]; s.c. HCC827-GR-T790M tumors) [%] | resistance of the model to EGFR inhibitor [3]
1 | CN1CCC(COc2cnc(-c3cccc(Cn4nc(-c5cccc(C#N)c5)ccc4=O)c3)nc2)CC1.Cl.O [3-(1-{3-[5-(1-Methyl-piperidin-4-ylmethoxy)-pyrimidin-2-yl]-benzyl}-6-oxo-1,6-dihydro-pyridazin-3-yl)-benzonitrile hydrochloride hydrate] | 15 | tumor regression | −100 |  |  | 
2 | C=CC(=O)Nc1cccc(Nc2nc(Nc3ccc(N4CCN(C(C)=O)CC4)cc3OC)ncc2C(F)(F)F)c1 [N-[3-[[2-[4-(4-acetylpiperazin-1-yl)-2-methoxy-anilino]-5-(trifluoromethyl)-pyrimidin-4-yl]amino]phenyl]prop-2-enamide] |  | tumor progressed | 700 | tumors progressed | 81 | 
3 | C#Cc1cccc(Nc2ncnc3cc(OCCOC)c(OCCOC)cc23)c1 [erlotinib] |  |  |  |  |  | resistant
